One data set deals with T1, DAO (Sus scrofa, UniProt Q9TRC7).
T1 construct: purchased Sigma
T1 sequence (Q9TRC7 25-755): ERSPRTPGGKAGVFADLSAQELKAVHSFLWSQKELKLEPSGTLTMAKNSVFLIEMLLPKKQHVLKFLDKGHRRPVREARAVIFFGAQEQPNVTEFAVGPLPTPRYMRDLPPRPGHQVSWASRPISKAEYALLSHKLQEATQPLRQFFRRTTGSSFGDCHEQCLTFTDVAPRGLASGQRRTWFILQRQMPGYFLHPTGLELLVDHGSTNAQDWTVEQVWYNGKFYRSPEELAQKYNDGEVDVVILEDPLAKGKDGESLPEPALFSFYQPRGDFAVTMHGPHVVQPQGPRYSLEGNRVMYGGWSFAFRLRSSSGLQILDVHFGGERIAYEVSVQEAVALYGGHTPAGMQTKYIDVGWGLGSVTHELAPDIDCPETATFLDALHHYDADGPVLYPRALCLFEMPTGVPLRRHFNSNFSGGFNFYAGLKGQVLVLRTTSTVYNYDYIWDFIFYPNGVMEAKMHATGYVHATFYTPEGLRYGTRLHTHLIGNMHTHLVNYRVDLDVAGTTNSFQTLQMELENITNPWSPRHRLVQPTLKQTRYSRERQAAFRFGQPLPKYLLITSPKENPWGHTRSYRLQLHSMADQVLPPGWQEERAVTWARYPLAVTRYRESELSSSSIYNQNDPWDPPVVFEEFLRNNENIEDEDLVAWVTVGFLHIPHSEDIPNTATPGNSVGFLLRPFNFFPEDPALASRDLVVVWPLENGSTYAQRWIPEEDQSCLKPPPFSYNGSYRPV
The data set is described as follows: biochemical. The note with it: n = 2 individual values.

The nature of a further data set: In vivo PK in mice. More on the design: species or system mouse.
A further data set addresses T2, LOX (Sus scrofa, UniProt P45845).
T2 construct: LOX enzyme was extracted from pig skin by the method of Shackleton and Hulmes; from tissue; host or cells: pig skin
T2 sequence (P45845 1-249): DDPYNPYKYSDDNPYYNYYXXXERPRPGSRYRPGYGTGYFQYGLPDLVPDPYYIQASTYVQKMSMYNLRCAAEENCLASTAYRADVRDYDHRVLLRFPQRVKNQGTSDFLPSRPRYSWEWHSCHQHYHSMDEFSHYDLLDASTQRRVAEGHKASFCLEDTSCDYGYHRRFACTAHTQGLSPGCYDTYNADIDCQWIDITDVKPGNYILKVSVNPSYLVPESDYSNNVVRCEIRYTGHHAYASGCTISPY
Briefly: LOX enzyme activity assay (HRP-coupled fluorescent, cadaverine substrate).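 Also: LOX isolated from porcine skin, nine-point dilution series starting at 100 µM, 20 min preincubation with enzyme, BAPN serving as positive control.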 The format is biochemical, pig.

Another data set deals with T3, MAO-B (Homo sapiens, UniProt P27338).
T3 construct: purchased Sigma
T3 sequence (P27338 1-520): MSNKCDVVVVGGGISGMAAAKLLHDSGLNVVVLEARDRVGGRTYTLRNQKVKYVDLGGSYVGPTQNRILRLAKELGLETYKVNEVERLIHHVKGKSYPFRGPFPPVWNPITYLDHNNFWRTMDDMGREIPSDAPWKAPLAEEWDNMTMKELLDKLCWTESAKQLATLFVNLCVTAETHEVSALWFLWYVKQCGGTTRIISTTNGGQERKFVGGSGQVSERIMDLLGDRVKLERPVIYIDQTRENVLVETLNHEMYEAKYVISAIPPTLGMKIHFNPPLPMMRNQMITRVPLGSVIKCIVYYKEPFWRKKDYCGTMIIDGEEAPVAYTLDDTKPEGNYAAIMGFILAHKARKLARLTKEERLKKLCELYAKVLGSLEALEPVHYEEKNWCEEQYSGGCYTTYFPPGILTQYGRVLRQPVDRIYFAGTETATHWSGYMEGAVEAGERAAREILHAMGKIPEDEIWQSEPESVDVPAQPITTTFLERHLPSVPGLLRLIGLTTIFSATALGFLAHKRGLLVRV
Briefly: MAO-B assay (MAO-Glo). The format is biochemical. As to conditions: n = 2 individual values.

A short description of data set [1]: Caco-2 permeability assay. The format is in vitro ADME. As to conditions: human.
Another data set is described as follows: MLM stability assay. It counts as in vitro ADME, mouse. The note with it: percentage of compound remaining after 30 min; 10 μM.
[2] abbreviates: mouse plasma, single oral gavage dose 50 mg/kg.

Molecules are shown by their SMILES.

Procedure for DAO: (§1) All amine oxidase assays were performed with concentrations as above. MAO-A and MAO-B enzymes were purchased from Promega and Sigma, respectively. The catalytic activity of MAO-A and MAO-B was determined using the Promega MAO-Glo assay kit (substrate included), with clorgyline and deprenyl as positive controls, respectively. DAO was purchased from Sigma and the catalytic activity was determined using the Promega ROS-Glo assay kit, with aminoguanidine as the positive control.
Procedure for In vivo PK in mice: Female BALB/c or CD1 mice (Charles River Laboratories) at 6 weeks of age were used for the PK analyses. The mice were dosed orally by gavage (50 mg/kg in dimethyl sulfoxide (DMSO)/water 1:19 v/v; n = 21) or intravenously in the tail vein (10 mg/kg in DMSO/Tween20/saline 10:1:89 v/v/v; n = 24). […] Three mice were used per time point per route. They were placed under halothane or isoflurane anesthesia, and blood for plasma preparation was taken by terminal cardiac puncture into heparinized syringes. Plasma samples were snap-frozen in liquid nitrogen and then stored at −80 °C prior to analysis.
Procedure for LOX: LOX enzyme was extracted from pig skin by the method of Shackleton and Hulmes.[24] LOX catalytic activity was determined using a horseradish peroxidase (HRP)-coupled fluorescent assay previously described,[19] with cadaverine hydrochloride as a substrate, BAPN as positive control, and a preincubation time of 20 min with nine dilutions from a top concentration of 100 μM.
Procedure for MAO-B: as §1
Procedure for MLM stability assay: Mouse liver microsomes (BALB/c) were purchased from Tebu-bio, and the assay was performed by methods previously described.[19] Inhibitors at 10 μM concentration incubated with the microsomes were assessed at 0, 15, and 30 min. Control samples containing no microsomes and no cofactors were also assessed at 0 and 30 min. Samples were extracted by protein precipitation and centrifugation for 20 min in a refrigerated centrifuge (4 °C) at 3700 rpm. The supernatant was analyzed by LCMS/MS for % metabolized over time.

With `CS(=O)(=O)c1cc(-c2ccccc2)cc(S(=O)(=O)c2ccc(CN)s2)c1` [9f], the IC50 on DAO is above 100 µM.
On to `Cc1ccc(-c2cc(S(=O)(=O)c3ccc(CN)s3)ccc2S(C)(=O)=O)cc1.Cl` [9l, (5-((4′-Methyl-6-(methylsulfonyl)-[1,1′-biphenyl]-3-yl)sulfonyl)thiophen-2-yl)methanamine Hydrochloride], for which, in “In vivo PK in mice” (setting [2]), the “AUC(PO)” value came to 12 µM·h and the peak concentration (Cmax) was 9.4 µM. In addition, the “F (oral bioavailability)” value in “In vivo PK in mice” (mouse, PO 50 mg/kg vs IV 10 mg/kg) came to 74%. Further, in “In vivo PK in mice” (mouse, intravenous 10 mg/kg), the “CL(IV)” value was found to be 106 mL/min/kg and the “t1/2(IV)” value was found to be 24 min. Also, the “LOX inhibition (in words)” value at LOX is given as “sub-micromolar”. In addition, the IC50 against MAO-B was above 100 µM. This compound displayed a Papp A→B in data set [1] (A → B) of 18 ×10⁻⁶ cm/s. Besides, in data set [1] (B → A), the Papp B→A was determined as 25 ×10⁻⁶ cm/s. Further, the IC50 on DAO is above 100 µM. In addition, the “MLM stability (%)” value in the data set “MLM stability assay” is recorded as 95%.

These data come from article PMC6937593, “Anti-metastatic Inhibitors of Lysyl Oxidase (LOX): Design and Structure–Activity Relationships” (Journal of Medicinal Chemistry, 2019).
